The values that follow come from US20260315436A1, “METHOD OF TREATING DISORDERS WITH SURF1 MALFUNCTION” (Cure Mito Foundation, priority 2023, published 2026).

For test [1], the system named is GM28010 SURF1 mutant fibroblasts. The experiment in a line: Seahorse mitochondrial stress test, fibroblast cell line GM28010 (Experiment 1, single compounds). The class given is cell-based, human. The settings on record: 48 h. As for the experimental part:
(§1) In order to evaluate selected compounds' impact on mitochondrial function in patient-derived fibroblasts compared to controls, three seahorse assays were conducted, Exp. 1: Fibroblast cell line GM28010—single compounds; Exp. 2. Fibroblast cell line GM28010—combination of compounds+ Single compounds; and Exp. 3: Fibroblast cell line GM28012—single compounds. Seahorse XF24 Extracellular Flux Analyzers continuously measure oxygen concentration and proton flux in the cell supernatant over time (Wu et al., 2007). The oxygen concentration and proton flux measurements are converted in OCR and ECAR values. This enables a direct quantification of mitochondrial respiration and glycolysis. The aim of the seahorse assays is to evaluate the impact of selected compounds on mitochondrial function in patient-derived fibroblasts compared to controls. Compounds used in the seahorse assays include posacanazole, sertaconazole, glabridin, zinglibroside (ginsenoside Z R1), AM281, cysteamine bitrartate, PF-06447475, losmapimod, telepravir, miltefosine, incyclinide, poziotinib, and methylene blue.
Fibroblast cell line GM28010 is a primary human fibroblast cell line obtained from patients with SURF1 Leigh syndrome. It was purchased from the Coriell Cell Repositories (Camden, NJ, repository number GM28010). Cell line GM00038 was used as a healthy control for GM28010 and is a primary human fibroblast purchased from the Coriell Cell Repositories (Camden, NJ, repository number GM00038).
Fibroblasts were grown in glucose according to recommendation.
Cells were plated in XF96 plates in culture medium and were plated at 10,000 cells/well.
The day after plating, cells were treated with the compounds in Table 1. The treatments were completed in glucose medium and galactose medium. The compounds were tested at for 48 hours. The compounds were incubated at (37 C, 5% CO2) until the day of the experiment.
*Fibroblasts were run at passage numbers: GM28010 SURF1 Fibroblasts P5; GM00038F controls P9.
• Assay Medium: 10 mM glucose or galactose DMEM supplemented with 2 mM glutamine and 1 mM pyruvate. • Injection Ports for basal glucose: Port A: 2 μM oligomycin; Port B: 2.5 μM FCCP; Port C: 4 μM FCCP; and Port D: 2 μM rotenone and antimycin A.
Data were normalized to cell number per well after the run. The Hoechst-stained nuclei were counted with the Operetta High-Content Imager.
(§2) • Basal Oxygen Consumption (OCR): This reflects the cellular oxygen usage under basal conditions, encompassing both energy production (ATP turnover) and background oxygen leak from the mitochondria. • Oligomycin Injection: Oligomycin is a compound that inhibits ATP synthase, an enzyme crucial for ATP production within mitochondria. • Oligomycin-resistant Respiration: After oligomycin injection, minimal oxygen consumption persists, representing non-ATP linked oxygen leak from the mitochondria, often termed proton leak. • ATP-linked Respiration: This value is derived by subtracting the oligomycin-resistant respiration from the basal OCR. It signifies the oxygen consumption specifically linked to ATP production through mitochondrial oxidative phosphorylation. • Mitochondrial Bioenergetic Efficiency: This parameter reflects the percentage decrease in oxygen consumption observed after oligomycin injection, indicating the mitochondria's efficiency in utilizing oxygen for ATP generation. • FCCP Injection: FCCP is a chemical that disrupts the link between mitochondrial electron transport and ATP production. • Maximal Respiration: Following FCCP injection, the highest oxygen consumption rate is measured, representing the maximum capacity of the mitochondria to utilize oxygen for respiration. • Spare Respiratory Capacity: This parameter is calculated by subtracting basal respiration from maximal respiration.

A further test relates to SURF1-mutant neurons. The experiment in a line: Neurite outgrowth in SURF1-mutant neurons (MAP2 high-content imaging). The class given is cell-based, human. As for the experimental part: The effect of Sertaconazole in human neurons carrying mutations in the gene SURF1 was measured. Hit compounds were filtered and selected to test their effect on neuronal morphogenesis. CRISPR/Cas9 engineered isogenic SURF1 mutant iPSCs on which neural commitment via overexpression of NGN2 was forced were used.
(§3) FIG. 28A depicts quantification of total neurite area in SURF1-mutant neurons. Each value represents the total neurite area in each well of a 96-well plate. Significant values were calculated using the non-parametric Mann-Whitney test and defective neurite development in SURF1-mutant cells was found FIG. 28B depicts quantification of total neurite area in SURF I-mutant neurons treated with either the DMSO vehicle or Sertaconazole at different concentrations. Neurite area was measured 5 days after induction of NGN2 overexpression, using high-content image analysis of MAP2-positive stained neuronal cells. Each value represents the total neurite area in each well of a 96-well plate.
Hit compounds were filtered and selected to test their effect on neuronal morphogenesis CRISPR/Cas9 engineered isogenic SURF1 mutant iPSCs on which neural commitment via overexpression of NGN2 was forced were used.
as §3, with “plate. […]” for “plate. Significant values were calculated using the non-parametric Mann-Whitney test and defective neurite development in SURF1-mutant cells was found”, “in SURF1-mutant” for “in SURF I-mutant”, “plate. […] FIG. 28C depicts representative images of SURF1 mutant neurons treated with either the DMSO vehicle or Sertaconazole.” for “plate.”

In test [2] the test system is SURF1-mutant midbrain organoids. The experiment in a line: Lactate released in the media by SURF1-mutant midbrain organoids. The class given is cell-based, human. The settings on record: 0.1 μM, 1 week; vs DMSO; Mann-Whitney ****p<0.0001. Here is the method: (§4) The effect of Sertaconazole in brain organoids carrying mutations in the gene SURF1 was measured.
(§5) FIG. 29A depicts lactate released in the media by SURF1-mutant midbrain organoids compared to isogenic control organoids. There is an aberrant increase of lactate release by SURF1-mutant organoids. FIG. 29B depicts quantification of lactate in the media of SURF1-mutant midbrain organoids that were treated with either DMSO vehicle or 0.1 μM Sertaconazole for 1 week. […] SURF1-mutant midbrain organoids were treated with either the DMSO vehicle or 0.1 μM Sertaconazole for 1 week. […] FIG. 29D depicts representative images of SURF1-mutant midbrain organoids treated with either the DMSO vehicle or Sertaconazole.
FIG. 29A depicts lactate released in the media by SURF1-mutant midbrain organoids compared to isogenic control organoids. The amount of lactate was quantified using a commercial kit. […] FIG. 29B depicts quantification of lactate in the media of SURF1-mutant midbrain organoids that were treated with either DMSO vehicle or 0.1 μM Sertaconazole for 1 week Media was collected and analyzed for lactate content using a commercial kit. […] SURF1-mutant midbrain organoids were treated with either the DMSO vehicle or 0.1 μM Sertaconazole for 1 week. […] Significant values were calculated using the non-parametric Mann-Whitney test. […]

The test system is the same in test [3]. The experiment in a line: Neuronal staining (TH, MAP2, SMI312) in SURF1-mutant midbrain organoids. The class given is cell-based, human. Here is the method: as §4, §5
FIG. 29A depicts lactate released in the media by SURF1-mutant midbrain organoids compared to isogenic control organoids. The amount of lactate was quantified using a commercial kit. […] FIG. 29B depicts quantification of lactate in the media of SURF1-mutant midbrain organoids that were treated with either DMSO vehicle or 0.1 μM Sertaconazole for 1 week Media was collected and analyzed for lactate content using a commercial kit. […] SURF1-mutant midbrain organoids were treated with either the DMSO vehicle or 0.1 μM Sertaconazole for 1 week. The organoids were then fixed and stained with antibodies against Tyrosine Hydroxylase (TH) (a marker of dopaminergic neurons), MAP2 (a marker for neuronal dendrites), and SMI312 (a marker for neuronal axons). Significant values were calculated using the non-parametric Mann-Whitney test. […] Sertaconazole can represent an effective repositionable drug for children affected by Leigh syndrome.

Test [4] concerns GM28012 SURF1 fibroblasts. Put plainly: Seahorse mitochondrial stress test, fibroblast cell line GM28012 (Experiment 3, single compounds). The note with it: 48 h. The class given is cell-based, human. Here is the method:
as §1, §2
GM28010 primary human fibroblasts obtained from patients with SURF1 Leigh syndrome were purchased from the Coriell Cell Repositories (Camden, N.J.; repository number GM28010).
GM00038 primary human fibroblasts purchased from the Coriell Cell Repositories (Camden, N.J., repository number GM00038) and were used as a healthy control.
Fibroblasts were grown in glucose according to recommendation. Cells were plated in XF96 plates in culture medium and plated at 10,000 cells/well. The day after plating, the cells were treated with the compounds. The treatments completed in glucose medium and galactose medium. The compounds were tested at for 48 hours. The compounds were incubated at (37 C, 5% CO2) until the day of the experiment. The fibroblasts were run at passage numbers: GM28012 SURF1 Fibroblasts P5.
The assay medium was 10 mM glucose or galactose DMEM supplemented with 2 mM glutamine and 1 mM pyruvate. Injection Ports for basal glucose: Port A: 2 μM oligomycin; Port B: 2.5 μM FCCP; Port C: 4 μM FCCP; and Port D: 2 μM rotenone and antimycin A.
The data were normalized to cell number per well after the run. The Hoechst-stained nuclei were counted with a Operetta High-Content Imager.

A further test concerns shy1Δ knockout mutants. The experiment in a line: Yeast drug repurposing screen, shy1Δ knockout mutants (haploid/diploid not separated). The class given is cell-based. The note with it: FIG. 12, inactive statins; test not named. The text has this: An aim of the present disclosure is to identify SURF1 Leigh Syndrome drug repurposing clinical candidates using a rapid turnaround, multi-species phenotypic screening approach that starts with the development and phenotypic characterization of genetically personalized yeast strains—“patient avatars”—and culminates in a drug repurposing screen, a process previously published for PMM2-CDG in Lao et al., 2019 Feb 7; 9(2):413423. […] Slow growth can be rescued in a pathway-agnostic high-throughput chemical suppressor screen. As in the case of PMM2-CDG, the SURF1 yeast ortholog, gene identifier SHY1, is essential undergrowth conditions that require functional mitochondria, i.e., respiration. The yeast species Yarrowia lipolytica was used for the screen since it is an obligate aerobe (requires oxygen to grow), contains a fully functional electron transport chain, and has already been prototyped in a drug repurposing screen (Perlstein 2020). A 384-well-plate growth-based assay with appropriate positive and negative controls was designed and optimized for a drug repurposing screen (~5,000 compounds). The drug repurposing screen for mitochondrial diseases involving complex IV deficiency is described herein. A general yeast screening method was discussed in Perlstein, Drug repurposing for mitochondrial diseases using a pharmacological model of complex I deficiency in the yeast Yarrowia lipolytica, bioRxiv, (2020), see https://www.biorxiv.org/content/10.1101/2020.01.08.899666v1.
Yeast cells completely lacking SURF1 are unable to grow in conditions that require their mitochondria to produce energy. Knocking out the SURF1 ortholog in yeast—SHY1—results in loss of the ability of the knockout mutant to grow on a non-fermentable carbon source, e.g., lactate or glycerol, that requires functional mitochondria. A shy1Δ knockout mutant is incapable of growing on YEPG, or yeast media spiked with ethanol and glycerol as the sole non-fermentable carbon sources.
A unique hit signature was identified using the pilot screen of ~2,500 known drugs. A drug repurposing screen was performed. BY4741 and BY4742 are wildtype haploid controls, BY4743 is the wildtype diploid control. PY14 and PY15 are haploid shy1Δ knockout mutants of each yeast mating type. PY16 is the diploid SHY1/shy1Δ heterozygous mutant, which grows just like BY4743. PY17 is the diploid homozygous shy1Δ knockout mutant. FIG. 20.
FIG. 22, FIG. 23, FIG. 24A, FIG. 24B. It is thought that the hits act by stabilizing cytochrome c oxidase.
The discernible red triangles are the hits; the larger the triangles, the more statistically significant the result. […] FIG. 25A and FIG. 25B. Haploid and diploid SURF1 deficient mutants were screened. The positive control is a wildtype (unmutated) yeast strain. […]

Where [5] appears, read: glucose and galactose conditions.

“Also recorded” adds a separate entry of the source.

Consider `Clc1ccc(C(Cn2ccnc2)OCc2csc3c(Cl)cccc23)c(Cl)c1` (stereo not drawn) [Sertaconazole, sertaconazole], for which the ATP production result in test [1] is recorded as “no effect on ATP production”. Also, the “maximal OCR” value in test [1] (all concentrations) was “↓ maximal OCR@ all conc;”. In test [1] (setting [5]), the respiration result is “did not result in major changes”. Further, in the test with SURF1-mutant neurons (5 days after NGN2 induction, vs DMSO, Mann-Whitney **p<0.01), the “total neurite area (defective neurite development in SURF1-mutant cells)” value is given as “correction of defective neurite development”. The “neuromorphogenesis defects in SURF1-mutant neurons” value with SURF1-mutant neurons (FIG. 28) is reported as “ameliorates neuromorphogenesis defects”. For the same compound, in the test on SURF1-mutant neurons (NGN2-induced SURF1 mutant neurons, FIG. 28), the “rescue of neurite outgrowth capacity” value was “dose-dependent rescue of neurite outgrowth capacity”. Further, in test [2], the “amount of lactate released to the media” value is “reduced the aberrant release of lactate; also recorded: decreases the aberrant amount of lactate”. Further, in test [3] (0.1 μM, 1 week, vs DMSO), the “amount of TH-positive dopaminergic neurons” value is recorded as “increased the amount of TH-positive dopaminergic neurons; also recorded: increase in TH neurons was evident but did not reach statistical significance” and the “overall neuronal branching organization” value was “rescued the overall neuronal branching organization”. In addition, in test [3] (0.1 μM, 1 week, vs DMSO, Mann-Whitney *p<0.05), the “amount of neuronal processes” value is recorded as “corrected the increased the amount of neuronal processes”. Besides, the “neuromorphogenesis and lactate defects in SURF1-mutant midbrain organoids” value in test [3] (FIG. 29) was “ameliorates neuromorphogenesis and lactate defects”. Moreover, the respiration entry in test [4] (setting [5]) is listed as “decreased respiration”. The “ATP production through glycolysis” value in test [4] (higher concentrations) is listed as “increased ATP production through glycolysis; also recorded: lower concentration; ↑ATP”.
For the compound `CCC(C)(C)C(=O)O[C@H]1C[C@@H](C)C=C2C=C[C@H](C)[C@H](CC[C@@H]3C[C@@H](O)CC(=O)O3)[C@H]21` [simvastatin], in the test on shy1Δ knockout mutants, the activity of statins result is “inactive”.
On the same count and under the same terms, next, `CC[C@H](C)C(=O)O[C@H]1C[C@@H](C)C=C2C=C[C@H](C)[C@H](CC[C@@H]3C[C@@H](O)CC(=O)O3)[C@H]21` [lovastatin]: “inactive”.
